From ChEMBL document CHEMBL1201862, “PubChem BioAssay data set” (2004)
The source made the active and inactive calls.

Legend:
[1] = target: T1, Dual specificity protein phosphatase 3 (Homo sapiens, UniProt P51452); experiment: VHR1 phosphatase inhibitors, primary screen, biochemical, absorbance, uHTS (AID 1654)
[2] = target: T2, Aminopeptidase N (Plasmodium falciparum FcB1/Columbia, UniProt O96935); experiment: malaria alanyl aminopeptidase activity blockers – biochemical, fluorogenic H-Leu-NHMec substrate, 1536-well (AID 1445); parameters: species or system Plasmodium falciparum 3D7, 3D7
T2 sequence (O96935 whole entry): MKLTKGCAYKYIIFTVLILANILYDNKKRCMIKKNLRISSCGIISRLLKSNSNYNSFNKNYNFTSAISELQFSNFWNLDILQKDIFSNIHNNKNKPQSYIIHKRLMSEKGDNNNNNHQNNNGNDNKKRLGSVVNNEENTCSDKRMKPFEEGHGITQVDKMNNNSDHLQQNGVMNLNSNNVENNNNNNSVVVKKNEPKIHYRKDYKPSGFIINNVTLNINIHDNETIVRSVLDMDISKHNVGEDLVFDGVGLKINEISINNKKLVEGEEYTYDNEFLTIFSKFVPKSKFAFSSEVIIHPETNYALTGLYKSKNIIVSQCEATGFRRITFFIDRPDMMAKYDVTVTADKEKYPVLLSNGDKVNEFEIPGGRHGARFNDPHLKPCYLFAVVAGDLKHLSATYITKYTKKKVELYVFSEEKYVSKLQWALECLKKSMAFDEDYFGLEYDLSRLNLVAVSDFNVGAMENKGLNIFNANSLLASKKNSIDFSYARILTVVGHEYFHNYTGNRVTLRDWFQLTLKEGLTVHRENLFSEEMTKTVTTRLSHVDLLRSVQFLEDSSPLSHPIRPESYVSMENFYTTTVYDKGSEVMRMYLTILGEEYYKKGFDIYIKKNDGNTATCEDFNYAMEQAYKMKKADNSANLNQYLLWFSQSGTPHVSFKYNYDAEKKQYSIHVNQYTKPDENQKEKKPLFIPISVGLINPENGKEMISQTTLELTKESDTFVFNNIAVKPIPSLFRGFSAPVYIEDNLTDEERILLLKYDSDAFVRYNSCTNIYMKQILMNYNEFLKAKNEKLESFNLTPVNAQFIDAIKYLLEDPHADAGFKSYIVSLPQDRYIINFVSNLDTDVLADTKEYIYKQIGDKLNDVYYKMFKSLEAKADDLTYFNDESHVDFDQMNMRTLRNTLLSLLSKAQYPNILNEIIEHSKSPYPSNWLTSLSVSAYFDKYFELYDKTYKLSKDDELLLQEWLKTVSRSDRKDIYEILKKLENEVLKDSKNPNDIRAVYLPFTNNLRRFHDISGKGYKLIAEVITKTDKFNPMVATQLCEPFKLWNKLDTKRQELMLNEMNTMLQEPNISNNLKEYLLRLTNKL

[3] = target: T3, Dual specificity protein phosphatase 6 (Rattus norvegicus, UniProt Q64346); experiment: inhibition of rat DUSP6 enzyme activity – biochemical, in vitro, primary screen (AID 425)
[4] = target: DNA (cytosine-5)-methyltransferase 1 (Homo sapiens, UniProt P26358); experiment: inhibition of DNA methylation by DNMT1 – biochemical, fluorescent molecular beacon, confirmation (AID 602386); type: functional
[5] = target: Genome polyprotein (dengue virus type 2, UniProt P29990); experiment: flavivirus cap methylation enzyme inhibition – biochemical, confirmation dose response, primary screen (AID 588689); type: functional
[6] = target: T3, Dual specificity protein phosphatase 6; type: functional
[7] = target: T4, Tyrosine-protein phosphatase non-receptor type 7 (Homo sapiens, UniProt P35236); experiment: redox-active compounds inhibiting HePTP phosphatase – biochemical, fluorescence, mechanism study (AID 2068); type: functional
T4 sequence (P35236 whole entry): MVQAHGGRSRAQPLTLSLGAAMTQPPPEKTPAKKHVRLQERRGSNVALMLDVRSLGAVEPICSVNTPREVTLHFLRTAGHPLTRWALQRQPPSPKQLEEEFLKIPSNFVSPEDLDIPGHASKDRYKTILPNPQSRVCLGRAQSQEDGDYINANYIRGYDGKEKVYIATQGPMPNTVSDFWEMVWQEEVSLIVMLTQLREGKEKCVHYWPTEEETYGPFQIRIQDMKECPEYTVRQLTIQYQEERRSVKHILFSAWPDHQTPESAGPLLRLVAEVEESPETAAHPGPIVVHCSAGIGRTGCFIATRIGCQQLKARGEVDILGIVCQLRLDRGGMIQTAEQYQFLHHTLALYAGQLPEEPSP

[8] = target: T1, Dual specificity protein phosphatase 3; experiment: VHR1 phosphatase inhibitors, biochemical (AID 1878)
[9] = target: NAD-dependent protein deacylase sirtuin-5, mitochondrial (Homo sapiens, UniProt Q9NXA8); experiment: sirtuin-5 deacylation blockers, concentration series – biochemical, fluorescence imaging, cherry-pick, set 5, dose response (AID 720591);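 also: desuccinylation of succinyl peptide AMC substrate read as fluorescence after trypsin release; potency of inhibitors that lower fluorescence and may act on trypsin instead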
[10] = target: T1, Dual specificity protein phosphatase 3; experiment: SAR VHR1 Fluorescent Assay for In Vitro dose response studies. [Related pubchem assays (depositor defined):AID1654, AID1661, AID1878, AID1992, AID2004, AID2070, AID2085]; type: functional
[11] = target: T1, Dual specificity protein phosphatase 3; experiment: SAR VHR1 absorbance Assay for In Vitro dose response studies. [Related pubchem assays (depositor defined):AID1654, AID1661, AID1878, AID1992, AID2004]
[12] = tested on: HEK293; experiment: cells; type: functional, cell-based; conditions: Homo sapiens
[13] = target: T5, Nuclear receptor subfamily 0 group B member 1 (Homo sapiens, UniProt P51843); experiment: Luminescence-based cell-based high throughput dose response assay for inhibitors of the orphan nuclear receptor subfamily 0, group B, member 1 (DAX1; NR0B1). [Related pubchem assays (depositor defined):AID504766, AID504790]; type: functional
T5 sequence (P51843 whole entry): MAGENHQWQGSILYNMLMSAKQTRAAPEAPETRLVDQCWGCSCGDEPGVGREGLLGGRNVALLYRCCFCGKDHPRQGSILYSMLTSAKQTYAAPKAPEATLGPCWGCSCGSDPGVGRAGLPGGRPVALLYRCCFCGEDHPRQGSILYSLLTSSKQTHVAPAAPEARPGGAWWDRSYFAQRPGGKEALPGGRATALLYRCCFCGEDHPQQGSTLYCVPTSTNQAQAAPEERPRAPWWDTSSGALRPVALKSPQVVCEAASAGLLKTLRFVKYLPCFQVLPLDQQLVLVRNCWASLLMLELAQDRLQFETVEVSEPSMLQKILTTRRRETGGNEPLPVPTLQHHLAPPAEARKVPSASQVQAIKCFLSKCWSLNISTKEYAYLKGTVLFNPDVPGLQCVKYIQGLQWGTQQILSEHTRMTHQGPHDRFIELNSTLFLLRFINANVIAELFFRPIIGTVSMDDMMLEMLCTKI

[14] = target: Mu-type opioid receptor (Homo sapiens, UniProt P35372); experiment: (§1) Counterscreen for agonists of heterodimerization of the mu 1 (OPRM1) and delta 1 (OPRD1) opioid receptors: Luminescence-based cell-based high throughput dose response assay to identify agonists of OPRM1 homodimerization.; type: functional
[15] = target: Voltage-gated inwardly rectifying potassium channel KCNH2 (Homo sapiens, UniProt Q12809); experiment: concentration-dependent hERG rescue from blockers – cell-based, thallium flux, dose response (AID 2121); type: ADME
[16] = tested on: HEK293; experiment: EBV LMP1 TES2 canonical NF-kB signalling blockers – cell-based, HEK293, luciferase, cherry-pick, dose response (AID 588343); type: functional; conditions: Homo sapiens
[17] = target: Delta-type opioid receptor (Homo sapiens, UniProt P41143); experiment: as §1, with “of OPRD1” for “of OPRM1”, “homodimerization. [Related pubchem assays (depositor defined):AID504326, AID504355, AID504692, AID504904, AID504905]” for “homodimerization.”; type: functional
[18] = target: 5-hydroxytryptamine receptor 5A (Homo sapiens, UniProt P47898); experiment: Counterscreen for agonists of OPRM1-OPRD1 heterodimerization: luminescence-based cell-based high throughput dose response assay to identify agonists of 5-hydroxytryptamine (serotonin) 5A receptor (HTR5A). [Related pubchem assays (depositor defined):AID504326, AID504355, AID504692, AID504904, AID504905]; type: functional
Sequence of 5-hydroxytryptamine receptor 5A (P47898 whole entry): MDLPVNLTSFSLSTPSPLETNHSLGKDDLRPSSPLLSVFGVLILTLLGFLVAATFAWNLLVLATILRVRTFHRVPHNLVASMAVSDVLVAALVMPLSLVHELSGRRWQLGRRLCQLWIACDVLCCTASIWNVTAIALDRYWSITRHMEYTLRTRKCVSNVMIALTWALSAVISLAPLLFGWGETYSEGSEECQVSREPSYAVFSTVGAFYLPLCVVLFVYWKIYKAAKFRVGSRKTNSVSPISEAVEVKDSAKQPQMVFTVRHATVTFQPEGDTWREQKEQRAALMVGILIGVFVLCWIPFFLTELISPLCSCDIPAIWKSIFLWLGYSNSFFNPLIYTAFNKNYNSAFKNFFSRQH

T1 sequence (P51452 whole entry): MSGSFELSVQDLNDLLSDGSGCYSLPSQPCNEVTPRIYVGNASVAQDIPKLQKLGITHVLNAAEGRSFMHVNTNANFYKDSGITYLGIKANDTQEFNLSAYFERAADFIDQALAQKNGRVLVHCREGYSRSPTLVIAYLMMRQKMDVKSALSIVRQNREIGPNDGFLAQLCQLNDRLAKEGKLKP
T3 sequence (Q64346 whole entry): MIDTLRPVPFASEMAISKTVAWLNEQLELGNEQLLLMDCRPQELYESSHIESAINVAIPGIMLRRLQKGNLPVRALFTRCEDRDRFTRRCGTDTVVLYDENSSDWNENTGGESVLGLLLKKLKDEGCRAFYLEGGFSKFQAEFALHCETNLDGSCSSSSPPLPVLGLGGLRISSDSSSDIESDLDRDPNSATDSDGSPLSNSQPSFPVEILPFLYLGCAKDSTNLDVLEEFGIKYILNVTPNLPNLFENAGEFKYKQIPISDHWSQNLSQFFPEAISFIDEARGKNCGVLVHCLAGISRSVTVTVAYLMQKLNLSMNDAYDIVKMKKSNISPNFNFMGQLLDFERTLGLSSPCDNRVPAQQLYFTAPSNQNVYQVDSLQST
Sequence of DNA (cytosine-5)-methyltransferase 1 (P26358 whole entry): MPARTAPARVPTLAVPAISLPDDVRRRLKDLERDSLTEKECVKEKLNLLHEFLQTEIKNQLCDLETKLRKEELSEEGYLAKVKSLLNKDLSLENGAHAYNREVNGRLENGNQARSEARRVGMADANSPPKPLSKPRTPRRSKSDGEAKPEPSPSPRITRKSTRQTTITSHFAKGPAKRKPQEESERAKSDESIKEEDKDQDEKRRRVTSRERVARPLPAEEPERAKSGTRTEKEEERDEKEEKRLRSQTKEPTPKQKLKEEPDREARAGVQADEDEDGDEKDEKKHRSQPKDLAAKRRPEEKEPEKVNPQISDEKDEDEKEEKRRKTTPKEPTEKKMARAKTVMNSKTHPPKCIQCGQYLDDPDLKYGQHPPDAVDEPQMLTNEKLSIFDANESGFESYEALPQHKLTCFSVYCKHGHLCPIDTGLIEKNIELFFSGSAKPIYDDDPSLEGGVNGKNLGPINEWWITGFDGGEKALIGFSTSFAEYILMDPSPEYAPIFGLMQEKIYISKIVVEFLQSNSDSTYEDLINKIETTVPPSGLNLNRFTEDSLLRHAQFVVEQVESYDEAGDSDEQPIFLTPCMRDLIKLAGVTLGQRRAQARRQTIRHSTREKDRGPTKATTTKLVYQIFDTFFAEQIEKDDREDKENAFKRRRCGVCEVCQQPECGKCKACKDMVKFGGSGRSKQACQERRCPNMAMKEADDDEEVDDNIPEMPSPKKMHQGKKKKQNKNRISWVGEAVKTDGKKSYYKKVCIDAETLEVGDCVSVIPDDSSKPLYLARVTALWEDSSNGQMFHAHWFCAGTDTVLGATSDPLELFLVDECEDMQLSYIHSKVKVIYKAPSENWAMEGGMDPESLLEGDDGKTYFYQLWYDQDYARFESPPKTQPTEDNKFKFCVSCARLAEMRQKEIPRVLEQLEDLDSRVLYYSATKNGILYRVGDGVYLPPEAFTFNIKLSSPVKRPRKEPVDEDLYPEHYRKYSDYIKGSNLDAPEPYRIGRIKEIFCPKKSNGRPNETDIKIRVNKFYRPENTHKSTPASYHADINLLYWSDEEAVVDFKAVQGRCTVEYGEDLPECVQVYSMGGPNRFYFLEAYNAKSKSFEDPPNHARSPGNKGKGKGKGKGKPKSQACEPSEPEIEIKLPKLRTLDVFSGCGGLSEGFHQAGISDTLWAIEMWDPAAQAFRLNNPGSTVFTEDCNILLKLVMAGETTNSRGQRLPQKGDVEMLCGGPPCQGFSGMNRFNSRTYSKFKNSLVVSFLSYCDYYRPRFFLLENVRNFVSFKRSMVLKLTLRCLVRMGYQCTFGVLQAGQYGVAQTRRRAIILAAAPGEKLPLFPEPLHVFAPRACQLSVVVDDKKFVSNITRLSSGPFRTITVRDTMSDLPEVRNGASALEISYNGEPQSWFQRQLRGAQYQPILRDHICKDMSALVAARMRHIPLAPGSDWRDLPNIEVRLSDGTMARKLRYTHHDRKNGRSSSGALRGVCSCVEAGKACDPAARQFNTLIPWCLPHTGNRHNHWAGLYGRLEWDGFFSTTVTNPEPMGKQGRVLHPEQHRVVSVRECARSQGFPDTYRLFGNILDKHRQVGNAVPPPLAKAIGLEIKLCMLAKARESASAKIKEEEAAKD
Sequence of Delta-type opioid receptor (P41143 whole entry): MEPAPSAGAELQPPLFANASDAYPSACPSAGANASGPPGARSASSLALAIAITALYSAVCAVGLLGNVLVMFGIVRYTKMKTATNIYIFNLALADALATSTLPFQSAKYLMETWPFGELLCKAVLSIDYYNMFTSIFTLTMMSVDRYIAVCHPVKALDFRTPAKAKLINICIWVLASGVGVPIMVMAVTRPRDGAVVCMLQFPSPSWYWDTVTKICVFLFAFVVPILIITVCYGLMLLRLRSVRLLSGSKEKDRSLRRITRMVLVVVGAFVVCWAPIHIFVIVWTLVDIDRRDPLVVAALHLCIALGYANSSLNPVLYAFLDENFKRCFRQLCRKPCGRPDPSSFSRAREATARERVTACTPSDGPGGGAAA
Sequence of Voltage-gated inwardly rectifying potassium channel KCNH2 (Q12809 whole entry): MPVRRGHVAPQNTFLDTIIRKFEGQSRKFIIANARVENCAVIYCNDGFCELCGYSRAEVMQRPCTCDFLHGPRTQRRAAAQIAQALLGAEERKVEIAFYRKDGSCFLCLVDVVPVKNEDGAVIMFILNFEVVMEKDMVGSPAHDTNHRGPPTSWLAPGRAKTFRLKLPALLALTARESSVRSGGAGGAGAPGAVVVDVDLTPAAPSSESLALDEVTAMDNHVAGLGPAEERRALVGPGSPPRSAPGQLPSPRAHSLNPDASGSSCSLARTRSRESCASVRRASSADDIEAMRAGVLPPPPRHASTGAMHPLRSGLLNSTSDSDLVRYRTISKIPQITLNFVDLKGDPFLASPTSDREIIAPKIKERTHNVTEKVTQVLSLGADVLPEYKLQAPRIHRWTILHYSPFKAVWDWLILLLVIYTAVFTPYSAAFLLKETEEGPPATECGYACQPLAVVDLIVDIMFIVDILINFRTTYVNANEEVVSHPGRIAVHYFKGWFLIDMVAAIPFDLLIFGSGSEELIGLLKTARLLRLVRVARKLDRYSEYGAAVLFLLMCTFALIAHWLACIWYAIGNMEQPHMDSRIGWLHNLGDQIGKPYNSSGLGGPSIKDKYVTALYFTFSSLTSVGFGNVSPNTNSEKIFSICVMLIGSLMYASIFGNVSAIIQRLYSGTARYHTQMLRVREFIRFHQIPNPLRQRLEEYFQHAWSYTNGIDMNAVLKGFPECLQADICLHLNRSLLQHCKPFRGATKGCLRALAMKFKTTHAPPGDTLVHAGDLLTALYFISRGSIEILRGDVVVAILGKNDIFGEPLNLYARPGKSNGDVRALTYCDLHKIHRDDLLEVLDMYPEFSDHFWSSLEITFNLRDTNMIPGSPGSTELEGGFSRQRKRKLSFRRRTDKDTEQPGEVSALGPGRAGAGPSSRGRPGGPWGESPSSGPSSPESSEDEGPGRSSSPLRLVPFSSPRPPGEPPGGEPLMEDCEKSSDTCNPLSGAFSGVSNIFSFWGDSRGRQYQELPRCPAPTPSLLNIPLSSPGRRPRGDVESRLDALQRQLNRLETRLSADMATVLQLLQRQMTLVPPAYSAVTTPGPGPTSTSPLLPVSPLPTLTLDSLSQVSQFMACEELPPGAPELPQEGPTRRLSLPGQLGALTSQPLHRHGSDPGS
Sequence of Mu-type opioid receptor (P35372 whole entry): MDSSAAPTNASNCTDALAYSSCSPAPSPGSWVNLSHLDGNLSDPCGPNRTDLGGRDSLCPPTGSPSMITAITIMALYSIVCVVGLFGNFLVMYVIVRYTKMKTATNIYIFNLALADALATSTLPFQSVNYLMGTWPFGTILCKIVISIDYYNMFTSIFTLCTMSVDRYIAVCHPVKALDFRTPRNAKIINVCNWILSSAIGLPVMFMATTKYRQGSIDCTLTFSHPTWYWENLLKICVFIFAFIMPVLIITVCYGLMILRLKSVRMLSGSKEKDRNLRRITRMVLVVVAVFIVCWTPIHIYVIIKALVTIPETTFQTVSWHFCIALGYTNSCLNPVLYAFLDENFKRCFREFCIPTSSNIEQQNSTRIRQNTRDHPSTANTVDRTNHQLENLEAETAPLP
Sequence of NAD-dependent protein deacylase sirtuin-5, mitochondrial (Q9NXA8 whole entry): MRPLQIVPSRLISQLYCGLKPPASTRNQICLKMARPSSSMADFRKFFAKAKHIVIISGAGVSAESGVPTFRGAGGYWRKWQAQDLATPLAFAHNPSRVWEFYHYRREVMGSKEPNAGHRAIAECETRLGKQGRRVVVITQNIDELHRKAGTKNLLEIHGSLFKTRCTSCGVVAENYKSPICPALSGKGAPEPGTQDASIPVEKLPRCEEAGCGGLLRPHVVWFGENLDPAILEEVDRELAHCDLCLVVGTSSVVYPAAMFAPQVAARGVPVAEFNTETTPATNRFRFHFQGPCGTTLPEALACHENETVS

O=C(O)CSc1cc(C(=O)c2ccccc2O)cn2c(=O)c3c4c(sc3nc12)CCCC4
IC50 [1]: 19 µM (active)
IC50 [2]: 19.5 µM (active)
IC50 [3]: > 158 µM (not active)
IC50 [4]: 14.1 µM (active)
IC50 [5]: 94.1 µM (active)
IC50 [6]: > 99 µM (inactive)
IC50 [7]: 0.576 µM (active)
IC50 [8]: 7.42 µM (active)
AC50 [9]: 5.07 µM (active)
IC50 [10]: 13.5 µM (active)
IC50 [11]: 2.62 µM (active)

Cc1cc(OCC(=O)N2CCC(C(N)=O)CC2)c2c(C)cc(=O)oc2c1
IC50 [12]: > 67.6 µM (inactive)
IC50 [13]: > 67.6 µM (inactive)

Cc1ccccc1Cn1c(O)c(N=NC(S)=Nc2ccccc2F)c2ccccc21
EC50 [14]: > 92.5 µM (inactive)
EC50 [15]: 0.87 µM (active)
AC50 [16]: 3.18 µM (active)
EC50 [17]: > 92.5 µM (inactive)
EC50 [18]: > 92.5 µM (inactive)
